Assay results as given in PMC12168616, “Machine Learning‐Assisted Prediction and Generation of Antimicrobial Peptides” (Small Science, 2025).
Values after ≈ are worked out from the molar mass of the structure shown. Where two headings read alike, the source gives them in different places. Ends that are not written are not given here. Peptide text beside a SMILES is read from it.

Legend:
[1] = system: K. Pneumoniae ATCC43816; type: cell-based, Klebsiella pneumoniae
Description: (§1) To evaluate the susceptibility of the different peptide sequences against clinical isolates of various bacterial pathogens, we used the minimum inhibitory concentration (MIC) assay. The MIC measures the efficacy of peptides in inhibiting bacterial growth. The specific MIC values of various peptides against Enterococcus […] ATCC19433, Staphylococcus aureus ATCC25923, Klebsiella pneumoniae ATCC43816, Acinetobacter baumannii AB5075, Pseudomonas aeruginosa PAO1, and Enterobacter species ATCC13048 were determined by measuring optical density at 600 nm (OD600 nm). […] The growth inhibition curves were used to estimate the MIC values.
(§2) Bacteria: The MIC was the lowest concentration of a drug, which inhibited the visible growth of a bacteria and could be determined by reading the absorption at 600 nm (OD600 nm) using a spectrophotometer. The peptides were subjected to antibacterial testing against gram‐positive and gram‐negative pathogens. All the ESKAPE pathogens (E. faecalis ATCC19433, S. aureus ATCC25923, K. pneumoniae ATCC43816, A. baumannii AB5075, P. aeruginosa PAO1, and E. aerogenes ATCC13048) were inoculated from nutrient agar plates to obtain a bacterial suspension by incubating the colony of bacteria in a flask containing 10 mL of Mueller Hinton broth II (MHB) at 37 °C for 24 h with gentle shaking (75 rpm). The bacterial suspensions were then diluted in MHB to 1 × 10^6 colony‐forming units (CFU) of bacteria mL^−1. Next, using serial dilutions in 96‐well plates, different concentrations of each peptide from 1.5–400 μM were prepared. 100 μL of peptide solutions at final concentration ranging between 0.75–200 μM were then added to a 96‐well plate containing 100 μL of diluted bacterial suspension. After 18–24 h incubation at 37 °C, the turbidity of the samples was observed, and the optical density of bacteria was measured using OD600 nm. All assays were performed in duplicates. The MICs were calculated as ≥90% inhibition of bacteria growth compared to the positive control wells.

[2] = system: A. Baumannii AB5075; type: cell-based, Acinetobacter baumannii
Description: as §1, §2

[3] = system: E. Aerogenes ATCC13048; type: cell-based, Enterobacter aerogenes
Description: as §1, §2

[4] = system: ESKAPE pathogens; assay: MIC assay, bacteria, strain of the six not assignable or not specified; type: cell-based; settings: one of the six ESKAPE strains, left to right order; MHB II, 18–24 h, 37 °C, OD600 nm, ≥90% inhibition, duplicates
Description: as §1, §2

[5] = system: E. Faecalis ATCC19433; type: cell-based, Enterococcus faecalis
Description: as §1, §2

[6] = system: S. Aureus ATCC25923; type: cell-based, Staphylococcus aureus
Description: as §1, §2

[7] = system: P. Aeruginosa PAO1; type: cell-based, Pseudomonas aeruginosa
Description: as §1, §2

[8] = broth microdilution, Mueller Hinton broth II, peptide 0.75–200 μM, 18–24 h at 37 °C, OD600 nm, MIC = ≥90% inhibition, duplicates

Compound	MIC K. Pneumoniae ATCC43816 ([1]; ATCC43816) [µM]	MIC A. Baumannii AB5075 ([2]; AB5075) [µM]	MIC E. Aerogenes ATCC13048 ([3]; ATCC13048) [µM]	MIC P. Aeruginosa PAO1 ([7]; PAO1) [µM]	MIC E. Faecalis ATCC19433 ([5]; ATCC19433) [µM]	MIC S. Aureus ATCC25923 ([6]; ATCC25923) [µM]	also measured
GIKIIGIKVATFLKA-NH2 [MLWH03]	200						
FVTITLKNFAKKKVG-NH2 [MLWH 28]	200	200	200				
VIYSIGLRIFNKIRP [MLWH99, peptide generated using algorithm, list 2]							MIC, Table S7, 4th value printed in the line (strain column cannot be told) [4]: 200 µM
RMFFKFKKKFKKWGQ [MLWH74, peptide generated using algorithm, list 2]							MIC E. Faecalis ATCC19433 [5, 8]: 200 µM; MIC S. Aureus ATCC25923 [6, 8]: 50 µM; MIC K. Pneumoniae ATCC43816 [1, 8]: 25 µM; MIC A. Baumannii AB5075 [2, 8]: 25 µM; MIC P. Aeruginosa PAO1 [7, 8]: 200 µM; MIC E. Aerogenes ATCC13048 [3, 8]: 100 µM
ALFLGGIWKKLPKAI-NH2 [MLWH02]		100		100			
VHKAFRKGSGAAILW-NH2 [MLWH 27]	200	200					
KHVFAFLGGKLVKLK-NH2 [MLWH 35]	200	50					
GGAFFKLTQKIIKKA-NH2 [MLWH07]	200	50		200			
GLLTTGKKKLLGIIA-NH2 [MLWH 26]		200					
PKWHKNKMFKFKRKF [MLWH98, peptide generated using algorithm, list 2]							MIC, Table S7, 4th value printed in the line (strain column cannot be told) [4]: 200 µM
VQKLLKFKLKITAKA-NH2 [MLWH08]	50	100	50	200	100		
GKIFGKLFLALIKMW-NH2 [MLWH06]		25	200	200	12.5	25	
GLWKIKLAFGKMFAK-NH2 [MLWH05]	25	12.5	25	25	25	100	
AWLKFKKKFGLFAKI-NH2 [MLWH11]	12.5	12.5	12.5	25	25	100	
AVLIAKLFHKLNKIK-NH2 [MLWH 15]	200	100		200	200		
LGVKPVFKFFKFFGK [MLWH51, peptide generated using algorithm, list 2]							MIC E. Faecalis ATCC19433 [5, 8]: 100 µM; MIC S. Aureus ATCC25923 [6, 8]: 200 µM; MIC K. Pneumoniae ATCC43816 [1, 8]: 100 µM; MIC A. Baumannii AB5075 [2, 8]: 12.5 µM; MIC P. Aeruginosa PAO1 [7, 8]: 50 µM; MIC E. Aerogenes ATCC13048 [3, 8]: 200 µM
AIVKKGWIKILAWVF-NH2 [MLWH 36]	100		100	200	100	6	

Compound	MIC K. Pneumoniae ATCC43816 ([1]; ATCC43816) [µM]	MIC A. Baumannii AB5075 ([2]; AB5075) [µM]	MIC E. Aerogenes ATCC13048 ([3]; ATCC13048) [µM]	MIC P. Aeruginosa PAO1 ([7]; PAO1) [µM]	MIC E. Faecalis ATCC19433 ([5]; ATCC19433) [µM]	MIC S. Aureus ATCC25923 ([6]; ATCC25923) [µM]	also measured
LLGFTAFIKGQIKTA-NH2 [MLWH09]	100	200	100	200	50	50	
KLKGLIFAWFKGIIA-NH2 [MLWH 45]	100	25	25	200	25	100	
YFHLKKSFGKKLKRV-NH2 [MLWH 41]		100					
PSKYAKIAIKFHKQI [MLWH61, peptide generated using algorithm, list 2]							MIC, Table S7, 4th value printed in the line (strain column cannot be told) [4]: 50 µM
KGFAKMFRLLKKLAR-NH2 [MLWH 32]	12.5	3	25	25	12.5	6	
TKFGQKVIKLIAQFL-NH2 [MLWH 24]	6	3	6	25	6	12.5	
FLPLIILKFIGKLLP-NH2 [MLWH 19]		200			1.5	3	
QGWIKIILPHIRYIK [MLWH57, peptide generated using algorithm, list 2]							MIC, Table S7, 4th value printed in the line (strain column cannot be told) [4]: 25 µM
IKVILKLVTNKGNGI-NH2 [MLWH 21]	200	50	200		200		
NFKIIKKVGIKLKGA-NH2 [MLWH 33]		100					
WFKAIAIGLGKFIAK-NH2 [MLWH 14]	25	25	25		25	25	
TLVKAVAHIAKLLKF-NH2 [MLWH 22]	50	12.5	200	200	100	100	
KFITKFVKGLGLGTL-NH2 [MLWH 23]	200	50		200			
FNKGKKFFFKFIKWV [MLWH73, peptide generated using algorithm, list 2]							MIC E. Faecalis ATCC19433 [5, 8]: 25 µM; MIC S. Aureus ATCC25923 [6, 8]: 25 µM; MIC K. Pneumoniae ATCC43816 [1, 8]: 12.5 µM; MIC A. Baumannii AB5075 [2, 8]: 12.5 µM; MIC P. Aeruginosa PAO1 [7, 8]: 25 µM; MIC E. Aerogenes ATCC13048 [3, 8]: 25 µM
ALKAKLKFPGKFLFK-NH2 [MLWH 25]	100	100	200	200			
CC[C@H](C)[C@H](NC(=O)[C@H](CCC(N)=O)NC(=O)[C@@H]1CCCN1C(=O)[C@H](Cc1ccccc1)NC(=O)[C@H](CCCCN)NC(=O)[C@H](CCCCN)NC(=O)CNC(=O)[C@H](Cc1ccccc1)NC(=O)[C@@H](N)Cc1c[nH]c2ccccc12)C(=O)N[C@@H](C)C(=O)N[C@@H](CS)C(=O)N[C@@H](CCCCN)C(=O)N[C@@H](CCCNC(=N)N)C(=O)N[C@@H](CS)C(=O)N[C@@H](CS)C(N)=O [MLWH 43] (H-WFGKKFPQIACKRCC-NH2)		25 (≈ 45.4 µg/mL)					
GPLMGAFIKKLLPKF-NH2 [MLWH 48]	100	25	200	100	200		
